# Where two headings read alike, the source gives them in different places.
# Experiments:
# [1] = Protein binding assay (equilibrium dialysis); format: in vitro ADME, rat
# In short: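 Rat plasma binding was measured by equilibrium dialysis (12–14 kDa cutoff membrane), equilibrated 24 h at 37 °C and 55 rpm. Alkaloids were tested at 2 μmol/L and saponins at 4 μmol/L. Unbound fraction = dialysate concentration/post-dialysis plasma concentration × 100%.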
# CYP2C9 = CYP2C9 (Homo sapiens, UniProt P11712); assay: Inhibition of recombinant CYP2C9 (probe tolbutamide); format: in vitro ADME
# Protocol: In this study, phenacetin (100 μM), coumarin (100 μM), bupropion (100 μM), paclitaxel (60 μM), tolbutamide (200 μM), mephenytoin (100 μM), chlorzoxazone (200 μM) and nifedipine (40 μM) have been used as the probe substrates for CYP1A2, 2A6, 2B6, 2C8, 2C9, 2C19, 2E1 and 3A4, respectively.
# UGT1A1 = target: T1, UGT1A1 (Homo sapiens, UniProt P22309); assay: Inhibition of expressed UGT1A1 (probe β-estradiol); format: in vitro ADME
# T1 sequence (P22309 26-533): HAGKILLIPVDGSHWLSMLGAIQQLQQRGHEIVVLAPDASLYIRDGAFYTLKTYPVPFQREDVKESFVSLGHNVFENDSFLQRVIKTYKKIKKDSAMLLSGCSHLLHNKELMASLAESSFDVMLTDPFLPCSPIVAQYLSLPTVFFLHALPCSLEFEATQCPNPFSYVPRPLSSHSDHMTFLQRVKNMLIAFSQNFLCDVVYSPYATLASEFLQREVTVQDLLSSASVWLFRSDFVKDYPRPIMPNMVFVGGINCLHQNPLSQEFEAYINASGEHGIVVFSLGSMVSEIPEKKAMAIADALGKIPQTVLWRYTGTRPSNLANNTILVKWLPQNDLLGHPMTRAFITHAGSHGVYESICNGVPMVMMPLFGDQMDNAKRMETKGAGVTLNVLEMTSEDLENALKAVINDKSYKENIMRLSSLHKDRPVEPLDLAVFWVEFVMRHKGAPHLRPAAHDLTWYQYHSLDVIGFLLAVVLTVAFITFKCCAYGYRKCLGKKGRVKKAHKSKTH
# Protocol: (§1) After centrifugation (13,800g, 10 min), the supernatant (8 μL) was obtained for determination by UHPLC system.
# (§2) Similarly, β-estradiol (60 μM), propofol (40 μM) and 4-MU (350 μM) were typically used as the substrates for UGT1A1, 1A9 and 2B7, respectively. After optimization of incubation conditions (Additional file 1: Fig. S2), the protein concentrations for UGT1A1, 1A9, and 2B7 were 0.125, 0.05, and 0.05 mg/mL, respectively.
# UGT2B7 = target: T2, UGT2B7 (Homo sapiens, UniProt P16662); assay: Inhibition of expressed UGT2B7 (probe 4-MU); format: in vitro ADME
# T2 sequence (P16662 24-529): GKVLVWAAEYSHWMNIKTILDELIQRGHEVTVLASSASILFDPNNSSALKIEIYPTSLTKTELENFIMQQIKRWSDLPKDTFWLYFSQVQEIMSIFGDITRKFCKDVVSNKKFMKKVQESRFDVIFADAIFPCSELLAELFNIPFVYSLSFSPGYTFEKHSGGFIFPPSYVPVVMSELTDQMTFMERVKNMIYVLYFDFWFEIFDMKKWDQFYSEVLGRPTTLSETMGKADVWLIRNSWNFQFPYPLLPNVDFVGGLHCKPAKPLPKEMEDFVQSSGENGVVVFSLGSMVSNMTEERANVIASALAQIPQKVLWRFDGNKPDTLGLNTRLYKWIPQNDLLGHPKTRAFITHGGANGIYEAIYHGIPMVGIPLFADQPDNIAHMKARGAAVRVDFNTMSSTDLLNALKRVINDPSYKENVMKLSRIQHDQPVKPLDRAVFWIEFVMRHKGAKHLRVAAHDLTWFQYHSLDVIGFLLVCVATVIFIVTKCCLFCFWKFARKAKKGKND
# Protocol: as §1, §2
# [2] = Stability tests of analytes in rat plasma QC samples; format: in vitro ADME
# Protocol: […] The dilution integrity was investigated by analyzing six replicate samples with each analyte, and each analyte were diluted 10-fold with blank rat matrix. Furthermore, the diluted samples were analyzed using freshly prepared calibration curve to calculate RE and RSD, which should be no more than ± 15% as criterion.
# [3] = rat plasma, nominal conc. 20 nM
# [4] = rat plasma, nominal conc. 100 nM
# [5] = rat plasma, nominal conc. 400 nM
# Sequence of CYP2C9 (P11712 whole entry): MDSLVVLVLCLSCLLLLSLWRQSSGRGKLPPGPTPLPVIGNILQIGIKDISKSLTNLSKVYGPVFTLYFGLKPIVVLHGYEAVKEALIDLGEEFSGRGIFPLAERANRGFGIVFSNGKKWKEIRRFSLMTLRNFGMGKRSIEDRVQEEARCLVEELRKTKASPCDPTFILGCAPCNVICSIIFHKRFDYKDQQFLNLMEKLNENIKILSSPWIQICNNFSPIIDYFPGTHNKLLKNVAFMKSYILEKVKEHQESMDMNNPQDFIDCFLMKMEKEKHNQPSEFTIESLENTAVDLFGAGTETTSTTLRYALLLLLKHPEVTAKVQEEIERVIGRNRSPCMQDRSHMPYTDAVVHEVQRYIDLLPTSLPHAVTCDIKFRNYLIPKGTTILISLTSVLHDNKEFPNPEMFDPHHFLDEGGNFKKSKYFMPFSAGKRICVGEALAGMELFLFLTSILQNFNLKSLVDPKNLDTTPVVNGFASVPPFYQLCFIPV
structure (smiles),measurement,setting,value
"O=C1CCC[C@@H]2[C@H]3CCCN4CCC[C@@H](CN12)[C@@H]34 [Compound A1, Matrine]",fraction unbound at 24 h,"[1]; rat plasma, equilibrium dialysis 24 h, 37 °C, 2 μmol/L alkaloids, 4 μmol/L saponins, read-out: fu-plasma (unbound fraction)",0.927 ± 0.0681
same,IC50,CYP2C9,> 100 µM
same,IC50,UGT1A1,> 100 µM
same,IC50,UGT2B7,> 100 µM
same,"At -80 °C for 48 h, Mean±SD",[2]; [3],21.33 ± 1.64 nM
same,"At -80 °C for 48 h, RE",[2]; [3],10.69%
same,"Extracted samples at 8 °C for 18 h, Mean±SD",[2]; [3],21.75 ± 0.99 nM
same,"Extracted samples at 8 °C for 18 h, RE",[2]; [3],13.23%
same,"Short-term stability at room temperature for 6 h, Mean±SD",[2]; [3],20.84 ± 0.75 nM
same,"Short-term stability at room temperature for 6 h, RE",[2]; [3],8.05%
same,"Three freeze-thaw cycles (-80 °C ↔ 23 °C), Mean±SD",[2]; [3],20.11 ± 1.97 nM
same,"Three freeze-thaw cycles (-80 °C ↔ 23 °C), RE",[2]; [3],-9.75%
same,"At -80 °C for 48 h, Mean±SD",[2]; [4],106.76 ± 6.22 nM
same,"At -80 °C for 48 h, RE",[2]; [4],13.15%
same,"Extracted samples at 8 °C for 18 h, Mean±SD",[2]; [4],95.18 ± 2.64 nM
same,"Extracted samples at 8 °C for 18 h, RE",[2]; [4],-7.17%
same,"Short-term stability at room temperature for 6 h, Mean±SD",[2]; [4],100.30 ± 2.84 nM
same,"Short-term stability at room temperature for 6 h, RE",[2]; [4],3.05%
same,"Three freeze-thaw cycles (-80 °C ↔ 23 °C), Mean±SD",[2]; [4],104.44 ± 12.01 nM
same,"Three freeze-thaw cycles (-80 °C ↔ 23 °C), RE",[2]; [4],14.16%
same,"At -80 °C for 48 h, Mean±SD",[2]; [5],394.46 ± 17.47 nM
same,"At -80 °C for 48 h, RE",[2]; [5],-6.06%
same,"Extracted samples at 8 °C for 18 h, Mean±SD",[2]; [5],402.13 ± 26.43 nM
same,"Extracted samples at 8 °C for 18 h, RE",[2]; [5],7.87%
same,"Short-term stability at room temperature for 6 h, Mean±SD",[2]; [5],420.24 ± 21.99 nM
same,"Short-term stability at room temperature for 6 h, RE",[2]; [5],11.33%
same,"Three freeze-thaw cycles (-80 °C ↔ 23 °C), Mean±SD",[2]; [5],415.19 ± 9.89 nM
same,"Three freeze-thaw cycles (-80 °C ↔ 23 °C), RE",[2]; [5],5.94%
"O=C1CCC[C@@H]2[C@H]3CCC[N+]4([O-])CCC[C@@H](CN12)[C@@H]34 (some centres unmarked) [Compound A3, Oxymatrine]",fraction unbound at 24 h,"[1]; rat, plasma",0.932 ± 0.0652
same,IC50,"CYP2C9; IC50 towards CYP2C9, recombinant isozyme, mean ± SD of triplicate, unit not given (IC50 classes in μM)",> 100 µM
same,IC50,"UGT1A1; IC50 towards UGT1A1, recombinant isozyme, mean ± SD of triplicate, unit not given (IC50 classes in μM)",> 100 µM
same,IC50,UGT2B7,> 100 µM
same,"Three freeze-thaw cycles (-80 °C ↔ 23 °C), Mean±SD","[2]; rat, 80 nM",82.92 ± 3.13 nM
same,"Three freeze-thaw cycles (-80 °C ↔ 23 °C), Mean±SD","[2]; rat, 400 nM",406.54 ± 20.44 nM
same,"Three freeze-thaw cycles (-80 °C ↔ 23 °C), Mean±SD","[2]; rat, 1600 nM",1588.35 ± 117.83 nM
same,"Short-term stability at room temperature for 6 h, Mean±SD","[2]; rat, 6 h, 80 nM",81.69 ± 3.23 nM
same,"Short-term stability at room temperature for 6 h, Mean±SD","[2]; rat, 6 h, 400 nM",391.75 ± 44.05 nM
same,"Short-term stability at room temperature for 6 h, Mean±SD","[2]; rat, 6 h, 1600 nM",1629.42 ± 112.91 nM
same,"Extracted samples at 8 °C for 18 h, Mean±SD","[2]; rat, 18 h, 80 nM",76.52 ± 2.34 nM
same,"Extracted samples at 8 °C for 18 h, Mean±SD","[2]; rat, 18 h, 400 nM",410.83 ± 21.99 nM
same,"Extracted samples at 8 °C for 18 h, Mean±SD","[2]; rat, 18 h, 1600 nM",1553.29 ± 127.31 nM
same,"At -80 °C for 48 h, Mean±SD","[2]; rat, 48 h, 80 nM",83.89 ± 6.74 nM
same,"At -80 °C for 48 h, Mean±SD","[2]; rat, 48 h, 400 nM",422.79 ± 10.74 nM
same,"At -80 °C for 48 h, Mean±SD","[2]; rat, 48 h, 1600 nM",1578.58 ± 168.35 nM

# Reference: article PMC7339578, “Multiple circulating alkaloids and saponins from intravenous Kang-Ai injection inhibit human cytochrome P450 and UDP-glucuronosyltransferase isozymes: potential drug–drug interactions” (Chinese Medicine, 2020)
